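Cultured in 96-well plates, cells were exposed to test compound for 48 hours across five concentrations. GI50 = concentration required for 50% inhibition of growth.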 Activity calls are given as the source filed them. Rule as the data show it: active = GI50 up to about 1.1 µM and inactive = higher.
Columns and labels:
Test in all cases: NCI tumour cell line growth inhibition, 48 h
IGROV-1 = tested on: IGROV-1
OVCAR-5 = tested on: OVCAR-5
SF-295 = tested on: SF-295
SNB-75 = tested on: SNB-75
A549 = tested on: A549
SK-MEL-2 = tested on: SK-MEL-2
HCT-116 = tested on: HCT-116
SN12C = tested on: SN12C
NCI-H460 = tested on: NCI-H460
NCI-H23 = tested on: NCI-H23
UACC-257 = tested on: UACC-257
HCC 2998 = tested on: HCC 2998
UO-31 = tested on: UO-31
OVCAR-8 = tested on: OVCAR-8
SF-268 = tested on: SF-268
MOLT-4 = tested on: MOLT-4
HOP-62 = tested on: HOP-62
SW-620 = tested on: SW-620
LOX IMVI = tested on: LOX IMVI
RXF 393 = tested on: RXF 393

Row | Structure (SMILES) | GI50 (IGROV-1) | GI50 (OVCAR-5) | GI50 (SF-295) | GI50 (SNB-75) | GI50 (A549) | GI50 (SK-MEL-2) | GI50 (HCT-116) | GI50 (SN12C) | GI50 (NCI-H460) | GI50 (NCI-H23) | GI50 (UACC-257) | GI50 (HCC 2998) | GI50 (UO-31) | GI50 (OVCAR-8) | GI50 (SF-268) | GI50 (MOLT-4) | GI50 (HOP-62) | GI50 (SW-620) | GI50 (LOX IMVI) | GI50 (RXF 393)
1 | N#Cc1ccc(C2Oc3ccc(Cl)cc3C=C2[N+](=O)[O-])cc1 (stereo not given) | 1.61 µM (inactive) | 2.09 µM (inactive) | 2.87 µM (inactive) | 1.47 µM (inactive) | 1.85 µM (inactive) | 1.74 µM (inactive) | 0.522 µM (active) | 1.31 µM (inactive) | 2.22 µM (inactive) | 1.48 µM (inactive) | 2.4 µM (inactive) | 0.979 µM (active) | 1.63 µM (inactive) | > 10 µM (inactive) | 1.91 µM (inactive) | 0.906 µM (active) | 1.98 µM (inactive) | 0.845 µM (active) | 1.04 µM (active) | 4.99 µM (inactive)
2 | N#C[C@H](OC1OC(COC2OC(CO)C(O)C(O)C2O)C(O)C(O)C1O)c1ccccc1 (stereo not given in full) | > 250 µM (inactive) | > 250 µM (inactive) | 203 µM (inactive) | > 250 µM (inactive) | > 250 µM (inactive) | > 250 µM (inactive) | > 250 µM (inactive) | > 250 µM (inactive) | > 250 µM (inactive) | > 250 µM (inactive) | 234 µM (inactive) | > 250 µM (inactive) | > 250 µM (inactive) | > 250 µM (inactive) | > 250 µM (inactive) | 158 µM (inactive) | > 250 µM (inactive) | > 250 µM (inactive) | > 195 µM (inactive) | > 250 µM (inactive)

Source: ChEMBL document CHEMBL1201862, “PubChem BioAssay data set” (2004)
